Results from patent US20070027127A1, “Treatment of inflammatory oral diseases with a combination of inhibitors of TNF-alpha and immunosuppressive agents” (priority 2000, published 2007).

Tested on: major RAS (recurrent aphthous stomatitis) mouth ulcers
Test: Clinical example: treatment of a human patient with longstanding major RAS
Assay type: in vivo
Description: There follows a description of the successful treatment of a human patient according to the invention.
The patient was a healthy person who had longstanding major RAS. The ulcers were located throughout the patient's mouth and oropharynx. […] The patient, prior to this visit, had been treated with numerous forms of conventional therapy, including systemic steroids and other pharmaceutical agents. All treatments had failed.
The patient was treated according to the invention as follows. The patient was given PTX tablets (one 400 mg tablet per day), combined with a rinse of the topical steroid DECADRON®.

SMILES: CC(=O)CCCCn1c(=O)c2c(ncn2C)n(C)c1=O [PTX, 3,7-Dihydro-3,7-dimethyl-1-(5-oxohexyl)-1H-purine-2,6-dione]
- Mouth ulcer status reported by the patient (approximately six months after initial treatment with PTX tablets plus DECADRON® rinse, then topical DECADRON® rinse on individual lesions): completely without mouth ulcers for the first time in eight years
- Resolution of the patient's major lesions (one patient, major RAS, PTX tablets (one 400 mg tablet per day) combined with a DECADRON® rinse, prior conventional therapies failed): completely resolved all of the patient's major lesions
